Assay results published in ChEMBL document CHEMBL1821555, “Identification of a series of 4-[3-(quinolin-2-yl)-1,2,4-oxadiazol-5-yl]piperazinyl ureas as potent smoothened antagonist hedgehog pathway inhibitors” (Bioorg Med Chem Lett, 2011).

Legend:
[1] = tested on: Shh Light II; experiment: Inhibition of Shh signaling in mouse Shh-light2 cells by Gli-dependent firefly luciferase reporter gene assay; assay type: functional, cell-based
[2] = target: T1, Protein smoothened (Homo sapiens, UniProt Q99835); experiment: Displacement of Bodipy-labelled cyclopamine from Smo expressed in COS-1 cells in presence of 2% FBS after 4 to 6 hrs by FACS flow cytometric analysis; assay type: cell-based
T1 sequence (Q99835 whole entry): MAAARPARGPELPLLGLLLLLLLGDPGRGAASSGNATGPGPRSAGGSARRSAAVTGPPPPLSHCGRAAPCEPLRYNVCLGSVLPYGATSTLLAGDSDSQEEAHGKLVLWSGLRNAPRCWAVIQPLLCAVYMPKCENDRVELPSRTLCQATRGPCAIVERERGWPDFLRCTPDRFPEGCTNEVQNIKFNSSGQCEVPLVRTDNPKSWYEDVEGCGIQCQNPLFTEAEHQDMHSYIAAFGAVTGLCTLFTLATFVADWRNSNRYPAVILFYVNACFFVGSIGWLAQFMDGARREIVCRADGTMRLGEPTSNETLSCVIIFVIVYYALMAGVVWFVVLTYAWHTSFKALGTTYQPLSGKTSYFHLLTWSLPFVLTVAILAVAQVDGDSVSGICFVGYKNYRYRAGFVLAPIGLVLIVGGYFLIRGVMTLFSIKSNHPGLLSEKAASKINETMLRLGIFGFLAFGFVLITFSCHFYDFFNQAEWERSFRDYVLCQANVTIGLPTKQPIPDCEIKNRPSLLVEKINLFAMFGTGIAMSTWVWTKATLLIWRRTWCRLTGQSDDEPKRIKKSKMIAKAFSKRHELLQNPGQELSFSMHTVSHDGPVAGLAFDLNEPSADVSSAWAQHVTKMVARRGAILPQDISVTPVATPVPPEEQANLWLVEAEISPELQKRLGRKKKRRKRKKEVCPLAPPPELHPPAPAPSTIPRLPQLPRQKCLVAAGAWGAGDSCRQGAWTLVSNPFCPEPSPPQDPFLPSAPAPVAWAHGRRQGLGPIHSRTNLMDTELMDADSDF

[3] = target: T1, Protein smoothened; experiment: Inhibition of Bodipy-labelled cyclopamine binding to Smo expressed in COS-1 cells in presence of 20% NHS after 4 to 6 hrs by FACS flow cytometric analysis; assay type: cell-based
[4] = Terminal half life in rat; assay type: ADME, organism-based; conditions: in vivo, read-out: beta t1/2 (converted)
[5] = Clearance in rat; assay type: ADME, organism-based; conditions: in vivo
[6] = Intrinsic clearance in rat liver microsomes assessed per mg of protein; assay type: ADME, Microsome
[7] = Fraction unbound in rat plasma; assay type: ADME, cell-free
[8] = Oral bioavailability in rat; assay type: ADME, organism-based; conditions: in vivo

IC50 [1]	IC50 [2]	also measured	Compound
2400 nM	620 nM		C[C@@H]1C[C@H](c2nc(-c3ccc4ccccc4n3)no2)CCN1C(=O)Nc1ccccc1Cl
	> 2500 nM		O=C(Nc1ccccc1Cl)N1CCC(c2nc(-c3cccnc3)no2)CC1
2500 nM	6000 nM		CC1(c2nc(-c3ccc4ccccc4n3)no2)CCN(C(=O)Nc2ccccc2Cl)CC1
	1900 nM		COc1ccccc1NC(=O)N1CCC(c2nc(-c3cnc4ccccc4c3)no2)CC1
2800 nM	> 2500 nM		O=C(Nc1ncccc1Cl)N1CCC(c2nc(-c3ccc4ccccc4n3)no2)CC1
	1200 nM	IC50 [3]: > 2500 nM	CS(=O)(=O)c1ccc(Cl)c(NC(=O)N2CCC(c3nc(-c4ccc5ccccc5n4)no3)CC2)c1
580 nM	280 nM		O=C(OC1CCCCC1)N1CCC(c2nc(-c3ccc4ccccc4n3)no2)CC1
840 nM	1000 nM		O=C(CC1CCCCCC1)N1CCC(c2nc(-c3ccc4ccccc4n3)no2)CC1
	7 nM	IC50 [3]: 25 nM	Cn1c(-c2noc(N3CCN(C(=O)NC4CCC(F)(F)CC4)CC3)n2)nc2ccccc21
2500 nM	2900 nM	IC50 [3]: 3700 nM	O=C(NC1CCNCC1)N1CCC(c2nc(-c3ccc4ccccc4n3)no2)CC1
350 nM	690 nM	IC50 [3]: 760 nM	Cn1c(-c2noc(C3CCN(C(=O)NC4CCS(=O)(=O)CC4)CC3)n2)nc2ccccc21
250 nM	110 nM		COc1ccccc1OC(=O)N1CCC(c2nc(-c3ccc4ccccc4n3)no2)CC1
	2200 nM		COc1ccccc1NC(=O)N1CCC(c2nc(-c3ccc4ccccc4c3)no2)CC1
	> 2500 nM		O=C(Nc1ccccc1Cl)N1CCC(c2nc(-c3ccccn3)no2)CC1
410 nM	220 nM		COc1cccc(NC(=O)N2CCC(c3nc(-c4ccc5ccccc5n4)no3)CC2)c1
	> 2500 nM		COc1ccccc1NC(=O)N1CCC(c2nc(-c3ccncc3)no2)CC1
1300 nM	1000 nM		O=C(Nc1ccccc1Cl)N1CCC(F)(c2nc(-c3ccc4ccccc4n3)no2)CC1
	> 2500 nM		Clc1ccccc1CN1CCC(c2nc(-c3ccc4ccccc4n3)no2)CC1
2000 nM	1100 nM		O=C(Nc1cnccc1Cl)N1CCC(c2nc(-c3ccc4ccccc4n3)no2)CC1

IC50 [1]	IC50 [2]	also measured	Compound
	> 2500 nM		O=C(c1ccccc1Cl)N1CCC(c2nc(-c3ccc4ccccc4n3)no2)CC1
850 nM	1800 nM	IC50 [3]: 4800 nM	O=C(NC1CC[S+]([O-])CC1)N1CCC(c2nc(-c3ccc4ccccc4n3)no2)CC1 (configuration not stated)
190 nM	490 nM		N#Cc1ccccc1NC(=O)N1CCC(c2nc(-c3ccc4ccccc4n3)no2)CC1
1400 nM	1300 nM		O=C(Nc1cccc2cccnc12)N1CCC(c2nc(-c3ccc4ccccc4n3)no2)CC1
630 nM	420 nM		O=C(NC1CCCC1)N1CCC(c2nc(-c3ccc4ccccc4n3)no2)CC1
	> 2500 nM		CCNC(=O)N1CCC(c2nc(-c3ccc4ccccc4n3)no2)CC1
	> 2500 nM		COc1ccccc1NC(=O)N1CCC(c2nc(-c3ccccc3)no2)CC1
360 nM	860 nM	IC50 [3]: 1600 nM; half-life [4]: 0.9 h; clearance [5]: 40 mL/min/kg; microsomal CLint [6]: 8 µL/min/mg	O=C(NC1CCS(=O)(=O)CC1)N1CCC(c2nc(-c3ccc4ccccc4n3)no2)CC1
2400 nM	15000 nM		COc1ccccc1NC(=O)N1CCC(c2noc(-c3ccc4ccccc4n3)n2)CC1
	470 nM		O=C(Nc1ccc(Cl)cc1)N1CCC(c2nc(-c3ccc4ccccc4n3)no2)CC1
3000 nM	1500 nM		Cc1noc(C)c1NC(=O)N1CCC(c2nc(-c3ccc4ccccc4n3)no2)CC1
	> 2500 nM		c1ccc2nc(-c3noc(C4CCN(CC5CCCCC5)CC4)n3)ccc2c1
2300 nM	670 nM		O=C(N1CCC(c2nc(-c3ccc4ccccc4n3)no2)CC1)N1CCCc2ccccc21
	> 2500 nM		COc1ccccc1NC(=O)N1CCC(c2nc(-c3cccnc3)no2)CC1
480 nM	1700 nM	IC50 [3]: 8600 nM	O=C(NC1CCOCC1)N1CCC(c2nc(-c3ccc4ccccc4n3)no2)CC1
	> 2500 nM		O=C(Nc1ccccc1Cl)N1CCC(c2nc(-c3nccc4ccccc34)no2)CC1
700 nM	340 nM		O=C(Nc1ccccc1C(F)(F)F)N1CCC(c2nc(-c3ccc4ccccc4n3)no2)CC1
	480 nM	IC50 [3]: 1500 nM	O=C(NC1CCC(F)(F)CC1)N1CCC(c2nc(-c3ccc4ccccc4n3)no2)CC1
89 nM	350 nM	fraction unbound [7]: 0.02; IC50 [3]: 1100 nM; half-life [4]: 1.3 h; bioavailability [8]: 59%; clearance [5]: 26 mL/min/kg; microsomal CLint [6]: 192 µL/min/mg	Cn1c(-c2noc(C3CCN(C(=O)NC4CCCCC4)CC3)n2)nc2ccccc21
